Test results reported in US20040152674A1, “Pharmaceutically active compounds and methods of use thereof” (Trustees of Tufts College, priority 1998, published 2004).
≈ marks a conversion by molar mass, not a printed value.

What was measured:
S. aureus MRSA5 = assay: MIC by broth dilution method (Table 4); format: cell-based; design: unit not given here; details: S. aureus MRSA5 Tc^r; 18 hours
Procedure: (§1) The minimum inhibitory concentration, the lowest concentration of drug that inhibits bacterial growth at 18 hours at their appropriate temperature, is determined by the broth dilution method using L-broth or Muller-Hinton broth. The Muller-Hinton broth was cation-adjusted accordingly and all bacteriological methods were performed as was described by Waitz, J. A., National Commision for Clinical Laboratory Standards Document M7-A2, vol.10, no. 8, pp.13-20, 2nd edition, Villanova, Pa. (1990). The organisms tested represent gram-positive and gram-negative bacterial species that are susceptible to tetracyclines or are resistant to tetracyclines due to the ability to efflux tetracyclines or which confer resistance by ribosomal protection mechanisms. The clinical strains used are either susceptible to tetracyclines or are resistant to them by either drug efflux or ribosomal protection.

E. faecalis pMV158 = assay: MIC by broth dilution method (Table 4); format: cell-based; design: unit not given here; details: E. faecalis pMV158 Tc^r; 18 hours
Procedure: as §1

S. aureus ATCC12715 = assay: MIC by broth dilution method (Table 4); format: cell-based; design: unit not given here; details: S. aureus Tc^r ATCC12715; 18 hours
Procedure: as §1

S. aureus RN4250 = assay: MIC by broth dilution method (Table 4); format: cell-based; design: unit not given here; details: S. aureus RN4250 Tc^r; 18 hours
Procedure: as §1

E. faecalis pAM211 = assay: MIC by broth dilution method (Table 4); format: cell-based; design: unit not given here; details: E. faecalis pAM211 Tc^r; 18 hours
Procedure: as §1

E. faecalis ATCC9790 [1] = assay: MIC by broth dilution method (Table 4); format: cell-based; design: unit not given here; details: E. faecalis Tc^r ATCC9790; 18 hours
Procedure: as §1

E. coli D31m4 [2] = assay: MIC by broth dilution method (Table 4); format: cell-based; design: unit not given here; details: E. coli D31m4* Tc^r, lipopolysaccharide-deficient mutant; 18 hours
Procedure: as §1

S. aureus RN450 [3] = assay: MIC by broth dilution method (Table 4); format: cell-based; design: unit not given here; details: S. aureus RN450 Tc^s; 18 hours
Procedure: as §1

E. coli D31m4(pHCM1) = assay: MIC by broth dilution method (Table 4); format: cell-based; design: unit not given here; details: E. coli D31m4(pHCM1) Tcr; 18 hours
Procedure: as §1

VRE 15 = assay: MIC in L broth tubes (Example 10); format: cell-based; details: Enterococcus, read-out: Minimum Inhibitory Concentration
Procedure: (§2) The inhibitory effects of compounds of the invention were examined relative to doxycycline using tetracycline-sensitive and tetracycline-resistant strains of E. coli, S. aureus, and E. faecalis as specified in the Tables below. The general protocol for performing these experiments was as follows: cultures were grown up fresh in L broth in the morning from an overnight culture. After 4-6 hours of growth, each bacterial culture was diluted to an A530 of 0.2-0.5 depending on the strain (E. coli, 0.5; S. aureus, 0.4; E. faecalis, 0.2). Individual tubes, containing 1 ml of L broth and different concentrations of the tested compound, were inoculated with the different bacterial cultures and then incubated at 37° C. After 17-18 hours of incubation, the concentration of the tested compound at which no observed cloudiness was seen was called the minimal inhibitory concentration (MIC). The results obtained are set forth in Tables 2 and 3 below, with the MIC values expressed in μg/ml and set forth in columns beneath the tested compound.

VRE 19 = assay: MIC in L broth tubes (Example 10); format: cell-based; details: Enterococcus; VRE 19, tetracycline sensitive; read-out: Minimum Inhibitory Concentration
Procedure: as §2

S. aureus 12715 (K) = assay: MIC in L broth tubes (Example 10); format: cell-based; details: Staphylococcus aureus, tetracycline resistant, 17-18 hours, 37° C., read-out: Minimum Inhibitory Concentration
Procedure: as §2

S. aureus RN4250 (K) = assay: MIC in L broth tubes (Example 10); format: cell-based; details: Staphylococcus aureus, read-out: Minimum Inhibitory Concentration
Procedure: as §2

E. faecalis pAM211 (L) = assay: MIC in L broth tubes (Example 10); format: cell-based; details: Enterococcus faecalis, read-out: Minimum Inhibitory Concentration
Procedure: as §2

E. faecalis ATCC9790 [4] = assay: MIC in L broth tubes (Example 10); format: cell-based; details: Enterococcus faecalis; E. faecalis ATCC9790, tetracycline sensitive; 17-18 hours, 37° C.; read-out: Minimum Inhibitory Concentration
Procedure: as §2

VRE 17 = assay: MIC in L broth tubes (Example 10); format: cell-based; details: Enterococcus; VRE 17, tetracycline sensitive; read-out: Minimum Inhibitory Concentration
Procedure: as §2

E. coli D31m4 [5] = assay: MIC in L broth tubes (Example 10); format: cell-based; details: Escherichia coli, D31M4, read-out: Minimum Inhibitory Concentration
Procedure: as §2

S. aureus RN450 [6] = assay: MIC in L broth tubes (Example 10); format: cell-based; details: Staphylococcus aureus; S. aureus RN450, tetracycline sensitive; 17-18 hours, 37° C.; read-out: Minimum Inhibitory Concentration
Procedure: as §2

VRE 11 = assay: MIC in L broth tubes (Example 10); format: cell-based; details: Enterococcus, read-out: Minimum Inhibitory Concentration
Procedure: as §2

E. coli D31m4(pHCM1) (B) = assay: MIC in L broth tubes (Example 10); format: cell-based; details: Escherichia coli, read-out: Minimum Inhibitory Concentration
Procedure: as §2

E. faecalid pMV158 (L) = assay: MIC in L broth tubes (Example 10); format: cell-based, E. faecalis; details: Enterococcus faecalis, read-out: Minimum Inhibitory Concentration
Procedure: as §2

MRSA 1 = assay: MIC in L broth tubes (Example 10); format: cell-based, S. aureus
Procedure: as §2

MRSA 3 = assay: MIC in L broth tubes (Example 10); format: cell-based, S. aureus; details: Staphylococcus aureus, read-out: Minimum Inhibitory Concentration
Procedure: as §2

SMILES	Antibacterial activity (minimum inhibitory concentration) (S. aureus MRSA5)	Antibacterial activity (minimum inhibitory concentration) (E. faecalis pMV158)	Antibacterial activity (minimum inhibitory concentration) (S. aureus ATCC12715)	Antibacterial activity (minimum inhibitory concentration) (S. aureus RN4250)	Antibacterial activity (minimum inhibitory concentration) (E. faecalis pAM211)	Antibacterial activity (minimum inhibitory concentration) (E. faecalis ATCC9790 [1])	Antibacterial activity (minimum inhibitory concentration) (E. coli D31m4 [2])	Antibacterial activity (minimum inhibitory concentration) (S. aureus RN450 [3])	Antibacterial activity (minimum inhibitory concentration) (E. coli D31m4(pHCM1))	further results
C[C@H]1c2cccc(O)c2C(=O)C2=C(O)[C@]3(O)C(=O)C(C(N)=O)=C(O)[C@@H](N(C)C)C3[C@@H](O)C21 (stereo partly drawn) [Doxycycline, [4S-(4alpha,12aalpha)]-4-(dimethylamino)-1,4,4a,5,5a,6,11,12a-octahydro-3,5,10,12,12a-pentahydroxy-6-methyl-1,11-dioxo-2-naphthacenecarboxamide, reference compound]	6.25	6.25	50	25	12.5	0.39	0.78	0.195	12.5	MIC (VRE 15): 12.5 µg/mL (≈ 28.1 µM); MIC (VRE 19): ≤ 1.56 µg/mL; MIC (S. aureus 12715 (K)): 25 µg/mL (≈ 56.3 µM); MIC (S. aureus RN4250 (K)): 12.5 µg/mL (≈ 28.1 µM); MIC (E. faecalis pAM211 (L)): 12.5 µg/mL (≈ 28.1 µM); MIC (E. faecalis ATCC9790 [4]): < 0.78 µg/mL; MIC (VRE 17): ≤ 1.56 µg/mL; MIC (E. coli D31m4 [5]): < 0.78 µg/mL; MIC (S. aureus RN450 [6]): < 0.78 µg/mL; MIC (VRE 11): 12.5 µg/mL (≈ 28.1 µM); MIC (E. coli D31m4(pHCM1) (B)): 12.5 µg/mL (≈ 28.1 µM); MIC (E. faecalid pMV158 (L)): 12.5 µg/mL (≈ 28.1 µM); Minimum Inhibitory Concentration (MRSA 1; MRSA 1, listed under Tetracycline Sensitive Bacteria): 6.25 µg/mL; MIC (MRSA 1; Staphylococcus aureus, MRSA, read-out: Minimum Inhibitory Concentration): 6.25 µg/mL (≈ 14.1 µM); MIC (MRSA 3): 6.25 µg/mL (≈ 14.1 µM)
CC1c2ccc(C3(C)CCCC3)c(O)c2C(=O)C2=C(O)C3(O)C(=O)C(C(N)=O)=C(O)C(N(C)C)C3C(O)C21 (stereo not drawn) [F, [4S-(4alpha,12aalpha)]-9-[1′-(1′-methyl)cyclopentyl]-4-(dimethylamino)-1,4,4a,5,5a,6,11,12a-octahydro-3,5,10,12,12a-pentahydroxy-6-methyl-1,11-dioxo-2-naphthacenecarboxamide]	0.08	0.08	0.78	0.39	0.39	0.78	0.78	0.39	1.56	
CCCC(C)(C)c1ccc2c(c1O)C(=O)C1=C(O)[C@]3(O)C(=O)C(C(N)=O)=C(O)[C@@H](N(C)C)C3C(O)C1C2C (stereo partly drawn) [H, [4S-(4alpha,12aalpha)]-9-[2′-(2′-methyl)pentyl]-4-(dimethylamino)-1,4,4a,5,5a,6,11,12a-octahydro-3,5,10,12,12a-pentahydroxy-6-methyl-1,11-dioxo-2-naphthacenecarboxamide]	0.39	0.78	0.78	0.39	0.78	0.78	50	0.08	1.56	
CC1c2ccc(C(C)(C)CCCBr)c(O)c2C(=O)C2=C(O)[C@]3(O)C(=O)C(C(N)=O)=C(O)[C@@H](N(C)C)C3C(O)C21 (stereo partly drawn) [I, [4S-(4alpha,12aalpha)]-9-[4′-(1′-bromo-4′-methyl)pentyl]-4-(dimethylamino)-1,4,4a,5,5a,6,11,12a-octahydro-3,5,10,12,12a-pentahydroxy-6-methyl-1,11-dioxo-2-naphthacenecarboxamide]	0.39	0.08	0.78	0.08	0.78	0.39	1.56	0.39	1.56	
CC1c2ccc(C(C)(C)CCCN(C)C)c(O)c2C(=O)C2=C(O)[C@]3(O)C(=O)C(C(N)=O)=C(O)[C@@H](N(C)C)C3C(O)C21 (stereo partly drawn) [J, [4S-(4alpha,12aalpha)]-9-[4′-(1′-dimethylamino-4′-methyl)pentyl]-4-(dimethylamino)-1,4,4a,5,5a,6,11,12a-octahydro-3,5,10,12,12a-pentahydroxy-6-methyl-1,11-dioxo-2-naphthacenecarboxamide]	50	50	50	50	50	50	50	50	50	
CC1c2ccc(C(C)(C)CCCN3CCCC3)c(O)c2C(=O)C2=C(O)[C@]3(O)C(=O)C(C(N)=O)=C(O)[C@@H](N(C)C)C3C(O)C21 (stereo partly drawn) [K, [4S-(4alpha,12a-alpha)]-9-[4′-(1′-pyrrolidinyl-4′-methyl)pentyl]-4-(dimethylamino)-1,4,4a,5,5a,6,11,12a-octahydro-3,5,10,12,12a-pentahydroxy-6-methyl-1,11-dioxo-2-naphthacenecarboxamide]	6.25	25	50	50	25	25	50	25	50	
